Data reported in patent US20110076258A1, “METHODS OF MODULATING T CELL- DEPENDENT IMMUNE RESPONSES” (Converge Biotech Inc., priority 2008, published 2011).

How the values were obtained:
[1] = tested on: NFAT1; experiment: NFAT1 nuclear localization after T cell stimulation; format: cell-based, mouse
Experimental: In order to distinguish between TCR dependent and independent ERK activation, TCR signaling was blocked at 30 min after CD3 activation with the tyrosine kinase inhibitor PP2, which inhibits TCR dependent Ick/fyn src-like kinase activity.
NFAT nuclear translocation without concomitant MAPK activation, which can be obtained by ionomycin treatment, implements a transcriptional program leading to T cell anergy (Macian et al., Cell 109:719-731 (2002)). […] Then, we hypothesized that activation of T cells in the presence of oATP could induce T cell anergy.

[2] = tested on: INS-HA transgenic RAG-2^−/− mice; experiment: Diabetes by adoptive transfer of TCR-HA CD4 cells; format: in vivo, mouse
[3] = tested on: NZB/NZW F1 mice; experiment: Systemic lupus erythematosus / glomerulonephritis model; format: in vivo, mouse
Experimental: Graph representing protein concentration in urine from NZB/NZW Fi mice treated either with PBS (control) or oATP. 25-week -old female mice received either PBS or oATP intravenously (3 mM in 100 μl, five days treatment, 2 days break) for 6 weeks (see Example 14). Ten animals received PBS and ten animals received oATP.
Twenty-five week-old NZB/NZW F1 female mice were injected intravenously with either PBS or oATP (3 mM in 100 μl, five days treatment, 2 days break) for six weeks and examined for proteinuria (upper panel) and other indicated parameters (lower panels) (see Example 14). **: P<0.01; ***: P<0.001.
Effector/memory (CD44^+CD62L^−) CD4^+ cells recovered from the spleen of 25 week-old NZB/NZW F1 female mice treated either with PBS or oATP (upper panel); IFN-γ and IL-4 secretion by CD4^+ effector/memory T cells stimulated with plate bound anti-CD3 and anti-CD28 antibodies for 48 h detected by ELISA (lower panels) (see Example 14). **: P<0.01; ***: P<0.001.
Systemic lupus erythematosus (SLE), or its mouse model NZB/NZW F1 (Andrews et al., J. Exp. Med. 148:1198-1215 (1978)), is a chronic inflammatory disease characterized by polyclonal B cell activation with subsequent hypergammaglobulinemia and organ injury caused by immune complex deposits. Because CD4^+ T cells play a crucial role in the onset and propagation of the disease, we analyzed whether oATP treatment might ameliorate disease symptoms. Female NZB/NZW F1 mice at 25 weeks old (when most animals display proteinuria) received either PBS or oATP intravenously (3 mM in 100 μl, five days treatment, 2 days break) for 6 weeks. The proteinuria values were measured before the first treatment and at regular intervals after three weeks of oATP administration. […] Restimulation of sorted effector/memory T cells led to lower levels of IL-4 and IFNγ secretion in cells derived from oATP treated animals (18. 16, lower panels).

## Nc1ncnc2c1ncn2[C@@H](C=O)O[C@@H](C=O)COP(=O)(O)OP(=O)(O)OP(=O)(O)O [oATP]
[1]
  nuclear localization of NFAT1: did not significantly affect
[2]; day 12, twice daily i.v. and i.p. day 1 to 10
  Blood glucose: normal
[2]; mouse, in vivo
  CD69^+ cells in the pancreas: undetectable
  TCR-HA^+ cells in the pancreas: barely detectable
  TCR-HA^+ cells in the spleen: significantly reduced
  pathological findings in the pancreas: no relevant pathological findings
[2]; versus PBS-treated control group
  IL-6, IFN-γ and TNF-α on a per-cell basis, ex vivo splenocytes pulsed with HA 110-120 peptide: significant reduction
[3]; 3 mM in 100 μl i.v., five days treatment, 2 days break, 6 weeks
  proteinuria levels: remained similar to pre-treatment levels
[3]; anti-CD3 and anti-CD28, 48 h, ELISA
  IL-4 and IFNγ secretion of restimulated sorted effector/memory T cells: lower levels
[3]; mouse, in vivo
  Histopathological scoring of kidneys: glomerular proliferation, lymphomonocytic infiltration and immune complex deposition: significant reduction
  number of effector/memory T cells in spleen and lymph nodes: significantly reduced
